Results from the NIST ThermoML archive (doi:10.1021/je600573w).
± gives the expanded uncertainty stated by the source.

Legend:
[1] = 101.33 kPa, Liquid, Vibrating tube method
[2] = molar heat capacity at constant pressure; conditions: 101.33 kPa, Liquid, Small sample (50 mg) DSC

Brc1cccc(Br)c1 [1,3-dibromobenzene]
Conditions	mass density [kg/m3]	molar heat capacity at constant pressure [J/K/mol]
[1], 288.15 K	1964.14 ± 1.5	–
[1], 298.15 K	1948.87 ± 1.5	–
[1], 308.15 K	1933.61 ± 1.5	–
[1], 318.15 K	1918.3 ± 1.4	–
[1], 328.15 K	1903.13 ± 1.4	–
[1], 338.15 K	1887.88 ± 1.4	–
[2], 283.15 K	–	176.01 ± 2.7
[2], 285.15 K	–	176.4 ± 2.7
[2], 287.15 K	–	176.71 ± 2.7
[2], 289.15 K	–	177.04 ± 2.7
[2], 291.15 K	–	177.38 ± 2.8
[2], 293.15 K	–	177.72 ± 2.8
[2], 295.15 K	–	178.08 ± 2.8
[2], 297.15 K	–	178.44 ± 2.8
[2], 299.15 K	–	178.81 ± 2.8
[2], 301.15 K	–	179.19 ± 2.8
[2], 303.15 K	–	179.58 ± 2.8
[2], 305.15 K	–	179.97 ± 2.8
[2], 307.15 K	–	180.37 ± 2.8
[2], 309.15 K	–	180.78 ± 2.8
[2], 311.15 K	–	181.19 ± 2.8
[2], 313.15 K	–	181.6 ± 2.8
[2], 315.15 K	–	182.01 ± 2.8
[2], 317.15 K	–	182.43 ± 2.8
[2], 319.15 K	–	182.85 ± 2.8
[2], 321.15 K	–	183.28 ± 2.8
[2], 323.15 K	–	183.7 ± 2.9
[2], 325.15 K	–	184.13 ± 2.9
[2], 327.15 K	–	184.55 ± 2.9
[2], 329.15 K	–	184.98 ± 2.9
[2], 331.15 K	–	185.4 ± 2.9
[2], 333.15 K	–	185.83 ± 2.9
[2], 335.15 K	–	186.25 ± 2.9
[2], 337.15 K	–	186.67 ± 2.9
[2], 339.15 K	–	187.08 ± 2.9
[2], 341.15 K	–	187.49 ± 2.9
[2], 343.15 K	–	187.9 ± 2.9
[2], 345.15 K	–	188.3 ± 2.9
[2], 347.15 K	–	188.7 ± 2.9
[2], 349.15 K	–	189.09 ± 2.9
[2], 351.15 K	–	189.47 ± 2.9
[2], 353.15 K	–	189.85 ± 2.9

Clc1cccc(Cl)c1 [1,3-dichlorobenzene]
Conditions	mass density [kg/m3]	molar heat capacity at constant pressure [J/K/mol]
[1], 288.15 K	1294.08 ± 0.62	–
[1], 298.15 K	1282.79 ± 0.61	–
[1], 308.15 K	1271.49 ± 0.59	–
[1], 318.15 K	1260.17 ± 0.58	–
[1], 328.15 K	1248.82 ± 0.57	–
[1], 338.15 K	1237.42 ± 0.56	–
[2], 283.15 K	–	167.15 ± 2.6
[2], 285.15 K	–	167.54 ± 2.6
[2], 287.15 K	–	167.93 ± 2.6
[2], 289.15 K	–	168.32 ± 2.6
[2], 291.15 K	–	168.72 ± 2.6
[2], 293.15 K	–	169.13 ± 2.6
[2], 295.15 K	–	169.55 ± 2.6
[2], 297.15 K	–	169.97 ± 2.6
[2], 299.15 K	–	170.39 ± 2.6
[2], 301.15 K	–	170.82 ± 2.6
[2], 303.15 K	–	171.25 ± 2.6
[2], 305.15 K	–	171.69 ± 2.7
[2], 307.15 K	–	172.14 ± 2.7
[2], 309.15 K	–	172.58 ± 2.7
[2], 311.15 K	–	173.04 ± 2.7
[2], 313.15 K	–	173.49 ± 2.7
[2], 315.15 K	–	173.95 ± 2.7
[2], 317.15 K	–	174.41 ± 2.7
[2], 319.15 K	–	174.88 ± 2.7
[2], 321.15 K	–	175.35 ± 2.7
[2], 323.15 K	–	175.83 ± 2.7
[2], 325.15 K	–	176.3 ± 2.7
[2], 327.15 K	–	176.78 ± 2.7
[2], 329.15 K	–	177.26 ± 2.8
[2], 331.15 K	–	177.75 ± 2.8
[2], 333.15 K	–	178.24 ± 2.8
[2], 335.15 K	–	178.73 ± 2.8
[2], 337.15 K	–	179.22 ± 2.8
[2], 339.15 K	–	179.71 ± 2.8
[2], 341.15 K	–	180.2 ± 2.8
[2], 343.15 K	–	180.7 ± 2.8
[2], 345.15 K	–	181.2 ± 2.8
[2], 347.15 K	–	181.7 ± 2.8
[2], 349.15 K	–	182.2 ± 2.8
[2], 351.15 K	–	182.7 ± 2.8
[2], 353.15 K	–	183.2 ± 2.8

Clc1ccc(Cl)cc1 [1,4-dichlorobenzene]
[2]
Conditions	molar heat capacity at constant pressure [J/K/mol]
327.15 K	177.09 ± 2.7
329.15 K	177.53 ± 2.8
331.15 K	177.98 ± 2.8
333.15 K	178.43 ± 2.8
335.15 K	178.89 ± 2.8
337.15 K	179.35 ± 2.8
339.15 K	179.81 ± 2.8
341.15 K	180.28 ± 2.8
343.15 K	180.76 ± 2.8
345.15 K	181.24 ± 2.8
347.15 K	181.73 ± 2.8
349.15 K	182.22 ± 2.8
351.15 K	182.71 ± 2.8
353.15 K	183.21 ± 2.8

Clc1ccccc1Br [1-bromo-2-chlorobenzene]
Conditions	mass density [kg/m3]	molar heat capacity at constant pressure [J/K/mol]
[1], 288.15 K	1659.67 ± 1.1	–
[1], 298.15 K	1646.32 ± 1.1	–
[1], 308.15 K	1633.01 ± 1.1	–
[1], 318.15 K	1619.69 ± 1	–
[1], 328.15 K	1606.36 ± 1	–
[1], 338.15 K	1593.03 ± 1	–
[2], 283.15 K	–	172.25 ± 2.7
[2], 285.15 K	–	172.59 ± 2.7
[2], 287.15 K	–	172.94 ± 2.7
[2], 289.15 K	–	173.29 ± 2.7
[2], 291.15 K	–	173.65 ± 2.7
[2], 293.15 K	–	174.02 ± 2.7
[2], 295.15 K	–	174.39 ± 2.7
[2], 297.15 K	–	174.78 ± 2.7
[2], 299.15 K	–	175.17 ± 2.7
[2], 301.15 K	–	175.56 ± 2.7
[2], 303.15 K	–	175.96 ± 2.7
[2], 305.15 K	–	176.36 ± 2.7
[2], 307.15 K	–	176.77 ± 2.7
[2], 309.15 K	–	177.19 ± 2.8
[2], 311.15 K	–	177.61 ± 2.8
[2], 313.15 K	–	178.03 ± 2.8
[2], 315.15 K	–	178.45 ± 2.8
[2], 317.15 K	–	178.88 ± 2.8
[2], 319.15 K	–	179.31 ± 2.8
[2], 321.15 K	–	179.74 ± 2.8
[2], 323.15 K	–	180.17 ± 2.8
[2], 325.15 K	–	180.6 ± 2.8
[2], 327.15 K	–	181.03 ± 2.8
[2], 329.15 K	–	181.47 ± 2.8
[2], 331.15 K	–	181.9 ± 2.8
[2], 333.15 K	–	182.33 ± 2.8
[2], 335.15 K	–	182.77 ± 2.8
[2], 337.15 K	–	183.2 ± 2.8
[2], 339.15 K	–	183.62 ± 2.8
[2], 341.15 K	–	184.05 ± 2.9
[2], 343.15 K	–	184.47 ± 2.9
[2], 345.15 K	–	184.89 ± 2.9
[2], 347.15 K	–	185.31 ± 2.9
[2], 349.15 K	–	185.72 ± 2.9
[2], 351.15 K	–	186.13 ± 2.9
[2], 353.15 K	–	186.53 ± 2.9

Clc1cccc(Br)c1 [1-bromo-3-chlorobenzene]
Conditions	mass density [kg/m3]	molar heat capacity at constant pressure [J/K/mol]
[1], 288.15 K	1638.44 ± 1.1	–
[1], 298.15 K	1624.97 ± 1	–
[1], 308.15 K	1611.51 ± 1	–
[1], 318.15 K	1598.05 ± 1	–
[1], 328.15 K	1584.56 ± 0.98	–
[1], 338.15 K	1571.05 ± 0.97	–
[2], 283.15 K	–	171.14 ± 2.6
[2], 285.15 K	–	171.49 ± 2.7
[2], 287.15 K	–	171.84 ± 2.7
[2], 289.15 K	–	172.21 ± 2.7
[2], 291.15 K	–	172.59 ± 2.7
[2], 293.15 K	–	172.97 ± 2.7
[2], 295.15 K	–	173.36 ± 2.7
[2], 297.15 K	–	173.75 ± 2.7
[2], 299.15 K	–	174.15 ± 2.7
[2], 301.15 K	–	174.56 ± 2.7
[2], 303.15 K	–	174.98 ± 2.7
[2], 305.15 K	–	175.4 ± 2.7
[2], 307.15 K	–	175.82 ± 2.7
[2], 309.15 K	–	176.25 ± 2.7
[2], 311.15 K	–	176.68 ± 2.7
[2], 313.15 K	–	177.12 ± 2.7
[2], 315.15 K	–	177.56 ± 2.8
[2], 317.15 K	–	178 ± 2.8
[2], 319.15 K	–	178.44 ± 2.8
[2], 321.15 K	–	178.89 ± 2.8
[2], 323.15 K	–	179.33 ± 2.8
[2], 325.15 K	–	179.78 ± 2.8
[2], 327.15 K	–	180.23 ± 2.8
[2], 329.15 K	–	180.68 ± 2.8
[2], 331.15 K	–	181.13 ± 2.8
[2], 333.15 K	–	181.58 ± 2.8
[2], 335.15 K	–	182.03 ± 2.8
[2], 337.15 K	–	182.47 ± 2.8
[2], 339.15 K	–	182.92 ± 2.8
[2], 341.15 K	–	183.36 ± 2.8
[2], 343.15 K	–	183.8 ± 2.9
[2], 345.15 K	–	184.24 ± 2.9
[2], 347.15 K	–	184.67 ± 2.9
[2], 349.15 K	–	185.1 ± 2.9
[2], 351.15 K	–	185.52 ± 2.9
[2], 353.15 K	–	185.94 ± 2.9
